“And” between values parts separate entries of the source, which are not always exact repeats. Equal entries are not always repeated.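 Test compounds were applied to cells in 96-well plates for 48 hours at 5 doses. GI50 is the concentration that inhibits growth by half. TGI: total growth inhibition.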
Tests used:
Experiment in all cases: NCI-60 cell line screen, 48 h
BT-549 breast = tested on: BT-549 breast
HCT-116 colon = tested on: HCT-116 colon
HCT-15 colon = tested on: HCT-15 colon
K-562 leukemia = tested on: K-562 leukemia
MOLT-4 leukemia = tested on: MOLT-4 leukemia
NCI-H23 lung = tested on: NCI-H23 lung
OVCAR-4 ovarian = tested on: OVCAR-4 ovarian
SF-268 CNS = tested on: SF-268 CNS
SK-MEL-28 melanoma = tested on: SK-MEL-28 melanoma
SR leukemia = tested on: SR leukemia

SMILES	GI50 (BT-549 breast) [µM]	TGI (BT-549 breast) [µM]	GI50 (HCT-116 colon) [µM]	TGI (HCT-116 colon) [µM]	TGI (HCT-15 colon) [µM]	GI50 (K-562 leukemia) [µM]	GI50 (MOLT-4 leukemia) [µM]	TGI (MOLT-4 leukemia) [µM]	TGI (NCI-H23 lung) [µM]	GI50 (OVCAR-4 ovarian) [µM]	TGI (OVCAR-4 ovarian) [µM]	TGI (SF-268 CNS)	GI50 (SK-MEL-28 melanoma) [µM]	TGI (SK-MEL-28 melanoma)	GI50 (SR leukemia) [µM]	GI50 (HCT-15 colon) [µM]	TGI (K-562 leukemia) [µM]	GI50 (NCI-H23 lung) [µM]	GI50 (SF-268 CNS) [µM]	TGI (SR leukemia) [µM]
COc1cc2c[n+](C)c3c4ccccc4ccc3c2cc1OC (tested in a mixture with another compound)	11	24.6	2.55	27.2	> 100	2.29	0.514	50.5	31.7	4.04	43.2	2.86 µM and 10.4 µM	2.89	8.22 µM and 18.6 µM	0.818					
O=c1[nH]cnc2[nH]ncc12	578	> 5000	444	> 5000	> 5000	179	972	> 5000	> 1870	160	> 3050	> 5000 µM	2000	> 5000 µM	480	143	> 5000	227	> 5000	> 2670
COc1ccccc1/C=N\N=C(N/N=C/c1ccccc1OC)N/N=C/c1ccccc1OC	2.88	9.83	3.04	11.3	18.3	3.09	3.04	12.1	> 100	3.43	> 100	> 100 µM	6.41	> 100 µM	3.16	3.27	36.4	3.91	3.69	12.5
O=C(N/N=C/c1ccccc1O)C(=O)Nc1ccc(F)cc1	18.1	> 100	3.19	> 100	> 100	5.02	2.87	> 100	> 100	2.53	> 100	> 100 µM	8.04	> 100 µM	2.52	1.86	> 100	7.31	2.77	> 100
Cc1ccc2c(c1)NC(=O)CC(c1ccccc1)=N2		> 100		> 100	> 100			85.8	> 100		> 100	> 100 µM		> 100 µM			26.7			64.2
COc1ccc(/C=C/C(=O)Oc2cc(O)cc(O)c2)cc1		> 100		39.5	65.9			30.7	> 100		> 100	86.5 µM		> 100 µM			> 100			> 100
CC(C)NC(=O)OCc1c(COC(=O)NC(C)C)c(-c2ccc(Cl)cc2)n2c1CCC2	2.4	15.1	3.54	17.5	> 50.1	2.65	1.42	> 26.2	12.5	2.7	14.3	13.5 µM	7.52	22.2 µM	0.218	4.07	> 26.1	2.15	2.25	
O=C(c1ccco1)c1c(C(F)(F)F)n([O-])c2ccccc2[n+]1=O	1.31	3.81	0.434	8.52	3.85	0.207	0.102	0.564	7.26	5.45	15.4	2.56 µM	15.9	50 µM	0.0737	0.785	3.43	1.21	0.515	0.523
CCCCCCCCCCCCSC(=N)N	18.9	47.1	3.86	14.9	11.5	2.01	2.46	5.85	32.8	7.93	27.9	25.8 µM	13.7	27.9 µM	1.79	2.96	4.64	16.3	7.82	4.4
Cc1cc(Cc2cc(C)cc(C(C)(C)C)c2O)c(O)c(C(C)(C)C)c1	11	23.9	3.13	11.7	14.5	3.95	6.27	> 100	16.3	11.6	23.9	17.3 µM	12.9	25.6 µM	4.46	4.29	19.8	4.23	5.06	45.9
CC(=O)O/N=C1/C(c2c(O)[nH]c3cc(Br)ccc23)=Nc2ccccc21	1.28	3.5	1.05	2.67	2.72	0.553	1.78	5.07	3.62	1.6	3.93	3.78 µM	2.22	4.9 µM	1.63	0.962	3.3	1.63	1.62	5.9

Source: PubChem BioAssay (NCI)
